Results on 13 compounds are retold here after US20250339405A1, “a-SYNUCLEIN AGGREGATE BINDING AGENT AND IMAGING METHOD” (National Institutes for quantum and Radiological Science …, priority 2019, published 2025).

Experiment [1] has as its target T1, α-synuclein aggregate (Homo sapiens, UniProt P37840). Nature of the experiment: Binding to α-synuclein aggregate versus tau aggregate (inventors' finding, no method given).
Experiment [2] has as its target T1, α-synuclein aggregate. As to conditions: background art, cited from earlier work.
In experiment [3] the target is T2, α-synuclein aggregate formed in the brain of the DLB patient (Homo sapiens, UniProt P37840).
T2 construct: Postfixed fresh frozen sections of the amygdala tissue of the DLB patient; from tissue; host or cells: post-mortem human DLB amygdala, frozen sections
Put plainly: In vitro fluorescence microscope measurement, DLB patient brain sections. Type of experiment: binding. As to conditions: for binding to the α-synuclein aggregate formed in the brain of the DLB patient, reactivity relative to PBB3: 30 μM compound, 50% ethanol, 30 minutes, room temperature, amygdala sections. From the text: Postmortem human brains were obtained from autopsies carried out with respect to a dementia with Lewy bodies (DLB) and Alzheimer's disease (AD) patients.
A frozen DLB tissue was sliced with a thickness of 20 μm in a cryostat (HM560, Carl Zeiss).
Postfixed fresh frozen sections of the amygdala tissue of the DLB patient and formalin fixed, paraffin embedded sections of a deparaffinized middle frontal gyrus tissue of the AD patient were used. Thirty μM of each of the above compounds and brain sections were incubated in a 50% ethanol solution for 30 minutes at room temperature. The sections were then washed twice, i.e., washed with a 50% ethanol solution for 5 minutes and with ultrapure water for 3 minutes. After mounting the sections using a mounting medium (VECTASHIELD H-1000, Vector Laboratories), images of lesion-enriched areas on the sections were obtained using a fluorescence microscope (DM4000, Leica). Analysis software (Image J) was used to quantify the fluorescence of lesion-enriched and lesion-free (background) areas.

Experiment [4] concerns the target T3, α-synuclein lesions (Mus musculus, UniProt O55042).
T3 construct: from tissue; host or cells: brain of C57BL/6 mice inoculated in the striatum with recombinant murine α-synuclein fibrils (made in E. coli)
Nature of the experiment: Ex vivo imaging of α-synuclein fibril-injected model mouse brain. The format is in vivo. To be noted: 1.66 mg/kg; brains collected 90 minutes after C05-05 or 120 minutes after BF-227. How it is done:
A model mouse at 6 weeks after the injection of the α-synuclein fiber solution was anesthetized with 1.5% (v/v) isoflurane in a manner similar to that described in “(Preparation of α-synuclein fibril-injected mouse model)” above, and C05-05 (1.66 mg/kg) or BF-227 (1.66 mg/kg) was intraperitoneally administered.
The brains were collected and frozen 90 minutes after the administration of C05-05 (or 120 minutes after the administration of BF-227), and frozen sections with the thickness of 20 μm were prepared in a cryostat (HM560). After mounting the sections using a mounting medium (VECTASHIELD H-1000), images of α-synuclein aggregate-enriched areas on the sections were obtained using a fluorescence microscope (DM4000).
Moreover, the same sections were immersed and fixed overnight in a phosphate buffer solution containing 4% paraformaldehyde. The brain after fixation was washed under running water and then treated with an autoclave for the antigen retrieval. Immunohistochemical staining with an anti-phosphorylated α-synuclein monoclonal antibody (pS129, abcam, ab59264) (1:1000) was carried out, and after mounting the sections using a mounting medium (VECTASHIELD H-1000), images of the same areas were obtained using the fluorescence microscope (DM4000). FIG. 7(a) contains images showing the case where C05-05 was administered, and FIG. 7(b) is images showing the case where BF-227 was administered.

Experiment [5] deals with aggregate of tau or amyloid-β formed in the brain of the AD patient. Put plainly: In vitro fluorescence microscope measurement, AD patient brain sections. The format is binding, human. To be noted: AD and DLB patient brain sections, 30 μM.
Text: Postmortem human brains were obtained from autopsies carried out with respect to a dementia with Lewy bodies (DLB) and Alzheimer's disease (AD) patients. Moreover, an AD brain tissue was fixed in 10% neutral buffered formalin, embedded in a paraffin block, and sliced with a thickness of 6 μm. Postfixed fresh frozen sections of the amygdala tissue of the DLB patient and formalin fixed, paraffin embedded sections of a deparaffinized middle frontal gyrus tissue of the AD patient were used. Thirty μM of each of the above compounds and brain sections were incubated in a 50% ethanol solution for 30 minutes at room temperature. The sections were then washed twice, i.e., washed with a 50% ethanol solution for 5 minutes and with ultrapure water for 3 minutes. After mounting the sections using a mounting medium ([sequence] H-1000, Vector Laboratories), images of lesion-enriched areas on the sections were obtained using a fluorescence microscope (DM4000, Leica). Analysis software (Image J) was used to quantify the fluorescence of lesion-enriched and lesion-free (background) areas.
The target of experiment [6] is T3, α-synuclein lesions. Put plainly: In vivo two-photon laser scanning fluorescence microscopy of α-synuclein fibril-injected model mouse. As to conditions: tail vein, 50 μl of 0.05% solution; 90 minutes after C05-05 or 30 minutes after PBB3. How it is done:
Note that the α-synuclein aggregate was inoculated into the striatum of the mouse with the following manner. First, hair on the head of 9-week-old C57BL/6 male mouse anesthetized with 1.5% (v/v) isoflurane was removed, and the scalp was disinfected with isodine, followed by application of xylocaine and incision in the scalp to expose the skull. Then, a hole was drilled in the skull at a position of 0.05 mm posterior to the bregma and 2 mm lateral to the midline, and 3 μl of an α-synuclein fiber solution (murine α-synuclein fiber (4 mg/ml) in saline) was injected into a position […] ventral to the brain surface using a glass pipette, and then the scalp was returned and sutured.
A model mouse was anesthetized with 1.5% (v/v) isoflurane 6 weeks after the injection of the α-synuclein fiber solution, and a cranial window was provided according to the Seylaz-Tomita method (Tomita et al. J Cereb Blood Flow Metab 25, 858-67, 2005). The mouse was anesthetized with 1.5% (v/v) isoflurane 2 weeks after the generation of the cranial window, and 50 μl of a solution of DMSO/physiological saline water=1:1 containing 0.05% of C05-05 or PBB3 was administered via the tail vein. The mouse was fixed under a two-photon laser fluorescence microscope 90 minutes after administration of C05-05 or 30 minutes after administration of PBB3, and 100 μl of a saline solution containing 5 mM of Sulforhodamine 101 was administered intraperitoneally, followed by intravital two-photon fluorescence imaging at an excitation wavelength of 900 nm. The detection wavelengths for C05-05 and PBB3 were set at 500 nm to 550 nm, and detection wavelengths for Sulforhodamine 101 were set at 573 nm to 648 nm.

Like-named read-outs stand apart in the source and are kept apart here.

Consider `CNc1ccc(/C=C/C=C/c2nc3ccc(OCC(O)CF)cc3s2)cn1` (centres unmarked) [1-fluoro-3-(2-((1E,3E)-4-(6-(methylamino)pyridin-3-yl)buta-1,3-dienyl)benzo[d]thiazol-6-yloxy)propan-2-ol], for which, in experiment [1], the “binding selectivity for the α-synuclein aggregate compared with a tau aggregate” value (from here on “binding selectivity … with a tau aggregate”) is on record as “higher binding selectivity for an aggregate of tau proteins than to an α-synuclein aggregate”.
Take `CN([11CH3])c1ncc(/C=C/c2nc3ccc(OCCF)cc3o2)s1` [[^11C]BF-227]: the “binding selectivity for the α-synuclein aggregate” value in experiment [2] (binds to an amyloid-β aggregate) is listed as “low”. In addition, in experiment [2], the “binding affinity for the α-synuclein aggregate” value is reported as “insufficient” and the “detection of α-synuclein lesions in patients by PET” value is reported as “only in a subset of MSA patients”.
As for `CN(C)c1ccc(C#C/C=C/c2nc3ccc(O)cc3s2)cc1` [C05-08, (E)-2-(4-(4-(dimethylamino)phenyl)but-1-en-3-ynyl)benzo[d]thiazol-6-ol], the “binding to the α-synuclein aggregate formed in the brain of the DLB patient, reactivity relative to PBB3” value (shortened to “binding … reactivity relative to PBB3”) in experiment [3] is reported as “reactivity equal to or greater than that of PBB3”.
Turning to `CNc1ccc(/C=C/C=C/c2nc3ccc(OCC(O)C[18F])cc3s2)cn1` (centres unmarked) [1-(18)F-fluoro-3-(2-((1E,3E)-4-(6-(methylamino)pyridin-3-yl)buta-1,3-dienyl)benzo[d]thiazol-6-yloxy)propan-2-ol], in experiment [1], the “binding selectivity … with a tau aggregate” value was “higher binding selectivity for an aggregate of tau proteins than to an α-synuclein aggregate”.
On the same count and under the same terms, under `[11CH3]Nc1ccc(/C=C/C=C/c2nc3ccc(O)cc3s2)cn1` [2-((1E,3E)-4-(6-((11)C-methylamino)pyridin-3-yl)buta-1,3-dienyl)benzo[d]thiazol-6-ol] stands “higher binding selectivity for an aggregate of tau proteins than to an α-synuclein aggregate”.
Take `CNc1ccc(C#C/C=C/c2nc3ccc(O)cc3s2)cc1` [C05-09, (E)-2-(4-(4-(methylamino)phenyl)but-1-en-3-ynyl)benzo[d]thiazol-6-ol]: the “binding … reactivity relative to PBB3” value in experiment [3] is on record as “reactivity equal to or greater than that of PBB3”.
With `CN(C)c1ncc(/C=C/c2nc3ccc(OCCF)cc3o2)s1` [BF-227, 2-(2-[2-dimethylaminothiazol-5-yl]ethenyl)-6-5 (2-[fluoro]ethoxy)benzoxazole, reference compound], the “binding to the α-synuclein aggregate relative to the compounds represented by the formula (I)” value in experiment [3] (30 μM, DLB patient brain sections) is reported as “weaker than the compounds represented by the formula (I)”. Moreover, the “detection of α-synuclein lesions by ex vivo imaging” value in experiment [4] is “no lesion was detected”. For the same compound, the aggregate mainly bound entry in experiment [5] is “mainly bound to the amyloid-β aggregate of AD”.
For the compound `CNc1ccc(C#C/C=C/c2nc3ccc(OC)cc3s2)c(F)n1` [C05-04], in experiment [3], the “binding … reactivity relative to PBB3” value was “reactivity equal to or greater than that of PBB3”.
On the same count and under the same terms, the entry for `CNc1ccc(C#C/C=C/c2cc3cc(O)ccc3o2)c(F)n1` [C06-02] is “reactivity equal to or greater than that of PBB3”.
On to `CNc1ccc(/C=C/C=C/c2nc3ccc(O)cc3s2)cn1` [PBB3, 2-((1E,3E)-4-(6-(methylamino)pyridin-3-yl)buta-1,3-dienyl)benzo[d]thiazol-6-ol], for which, in experiment [1], the “binding selectivity … with a tau aggregate” value is “lower binding selectivity for the α-synuclein aggregate as compared with its binding selectivity for a tau aggregate” and the “binding to the α-synuclein aggregate” value is “some degree of affinity”. Besides, the “binding selectivity … with a tau aggregate” value in experiment [1] (listed as 2-((1E,3E)-4-(6-(methylamino)pyridin-3-yl)buta-1,3-dienyl)benzo[d]thiazol-6-ol) was “higher binding selectivity for an aggregate of tau proteins than to an α-synuclein aggregate”. Moreover, the “detection of α-synuclein lesions by intravital two-photon fluorescence imaging” value in experiment [6] was “no lesion was detected”.
For `CNc1ccc(C#C/C=C/c2nc3ccc(CN)cc3s2)cn1` [C05-02, (E)-5-(4-(6-(aminomethyl)benzo[d]thiazol-2-yl)but-3-en-1-ynyl)-N-methylpyridine-2-amine], in experiment [3], the “binding … reactivity relative to PBB3” value is reported as “reactivity equal to or greater than that of PBB3”.
Consider `CNc1ccc(C#C/C=C/c2nc3ccc(O)cc3s2)c(F)n1` [C05-01, (E)-2-(4-(2-fluoro-6-(methylamino)pyridin-3-yl)but-1-en-3-ynyl)benzo[d]thiazol-6-ol], for which the “binding … reactivity relative to PBB3” value in experiment [3] was “reactivity equal to or greater than that of PBB3”.
Same read-out and setting: under `CNc1ccc(C#C/C=C/c2nc3ccc(O)cc3s2)cn1` [C05-03, (E)-2-(4-(6-(methylamino)pyridin-3-yl)but-1-en-3-ynyl)benzo[d]thiazol-6-ol] stands “reactivity equal to or greater than that of PBB3”.
